# Test results reported in ChEMBL document CHEMBL1177881, “Synthesis and GABAA receptor activity of A-homo analogues of neuroactive steroids” (Eur J Med Chem, 2010).
# Tests used:
# Rattus norvegicus = species: Rattus norvegicus; test: Displacement of [35S]TBPS from GABAA receptor in rat cerebellum at 10 uM to 1 nM after 60 mins; assay type: tissue-based
# [1] = Displacement of [35S]TBPS from GABAA receptor in rat cerebellum after 60 mins; assay type: tissue-based
compound,measurement,setting,value
CC(=O)[C@H]1CC[C@H]2[C@@H]3CC[C@H]4CC[C@@H](O)CC[C@]4(C)[C@H]3CC[C@]12C,Imax,Rattus norvegicus,46.2%
same,IC50,[1],1000 nM
CC(=O)[C@H]1CC[C@H]2[C@@H]3CC=C4C[C@H](O)CCC[C@]4(C)[C@H]3CC[C@]12C,Imax,Rattus norvegicus,50.7%
same,IC50,[1],800 nM
CC(=O)[C@H]1CC[C@H]2[C@@H]3CC=C4CC[C@@H](O)CC[C@]4(C)[C@H]3CC[C@]12C,Imax,Rattus norvegicus,50%
same,IC50,[1],100 nM
CC(=O)[C@H]1CC[C@H]2[C@@H]3CC[C@H]4C[C@H](O)CC[C@]4(C)[C@H]3CC[C@]12C [BREXANOLONE],Imax,Rattus norvegicus,79.6%
same,IC50,[1],80 nM
CC(=O)[C@H]1CC[C@H]2[C@@H]3CC=C4CC[C@H](O)CC[C@]4(C)[C@H]3CC[C@]12C,Imax,Rattus norvegicus,75.6%
same,IC50,[1],1200 nM
